The results in this text go back to US5969132.

Read-outs that look alike come from different tables or passages of the source.

For the series the following is noted: amide bond, NaHCO3, CH2Cl2, 72.0 h, 2 steps.

Take `CC(C)[C@H](COCc1ccccc1)NC(=O)C(F)(F)[C@H](O)[C@@H]1Cc2ccc(cc2)OCC(=O)NCC(=O)N[C@@H](C(C)C)C(=O)N1`: the ring closure, yield of all isomers (from CC(C)[C@H](COCc1ccccc1)NC(=O)C(F)(F)C(O)[C@H](Cc1ccc(OCC(=O)Oc2c(F)c(F)c(F)c(F)c2F)cc1)NC(=O)[C@@H](NC(=O)CNC(=O)OC(C)(C)C)C(C)C, 1.69 mM) was 8%.

For the molecule `CC(C)[C@@H]1NC(=O)CNC(=O)COc2ccc(cc2)C[C@@H](C(O)C(F)(F)C(=O)NCc2ccccc2)NC1=O` (some centres unmarked), the ring closure, yield of all isomers (from CC(C)[C@H](NC(=O)CNC(=O)OC(C)(C)C)C(=O)N[C@@H](Cc1ccc(OCC(=O)Oc2c(F)c(F)c(F)c(F)c2F)cc1)C(O)C(F)(F)C(=O)NCc1ccccc1) turned out to be 78.7%.
